{"source": "PubChem BioAssay AID2060502", "about": "(Molecular Pharmacology Branch, DTP, NCI, 2025);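 further: spheroids exposed to agents for seven days before readout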;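 on viability, T/C: percent of vehicle control viability where 100% = DMSO wells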", "system": "885724-159-R-J1-PDC complex spheroid viability", "assay": "Anticancer human tumor 885724-159-R-J1-PDC patient-derived pancreatic adenocarcinoma cell line growth inhibition [GQUAD]", "conditions": "for IC50: curve of first compound; for viability, T/C: stronger effect = lower value", "procedure,_shortened": "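Tumor cells were grown as complex spheroids with HUVEC endothelial cells and mesenchymal stem cells as stroma. G-quadruplex stabilizers were combined with targeted agents over half-log dilutions from near the clinical Cmax, or from 10 microM.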", "key": {"[1]": {"conditions": "second compound 0.0316 µM, first compound 0.0316 µM"}, "[2]": {"conditions": "second compound 0.0316 µM, first compound 0.1 µM"}, "[3]": {"conditions": "second compound 0.0316 µM, first compound 0.316 µM"}, "[4]": {"conditions": "second compound 0.0316 µM, first compound 1 µM"}, "[5]": {"conditions": "second compound 0.0316 µM, first compound 3.16 µM"}, "[6]": {"conditions": "second compound 0.0316 µM, first compound 10 µM"}, "[7]": {"conditions": "second compound 0.1 µM, first compound 0.0316 µM"}, "[8]": {"conditions": "second compound 0.1 µM, first compound 0.1 µM"}, "[9]": {"conditions": "second compound 0.1 µM, first compound 0.316 µM"}, "[10]": {"conditions": "second compound 0.1 µM, first compound 1 µM"}, "[11]": {"conditions": "second compound 0.1 µM, first compound 3.16 µM"}, "[12]": {"conditions": "second compound 0.1 µM, first compound 10 µM"}, "[13]": {"conditions": "second compound 0.316 µM, first compound 0.0316 µM"}, "[14]": {"conditions": "second compound 0.316 µM, first compound 0.1 µM"}, "[15]": {"conditions": "second compound 0.316 µM, first compound 0.316 µM"}, "[16]": {"conditions": "second compound 0.316 µM, first compound 1 µM"}, "[17]": {"conditions": "second compound 0.316 µM, first compound 3.16 µM"}, "[18]": {"conditions": "second compound 0.316 µM, first compound 10 µM"}, "[19]": {"conditions": "second compound 1 µM, first compound 0.0316 µM"}, "[20]": {"conditions": "second compound 1 µM, first compound 0.1 µM"}, "[21]": {"conditions": "second compound 1 µM, first compound 0.316 µM"}, "[22]": {"conditions": "second compound 1 µM, first compound 1 µM"}, "[23]": {"conditions": "second compound 1 µM, first compound 3.16 µM"}, "[24]": {"conditions": "second compound 1 µM, first compound 10 µM"}, "[25]": {"conditions": "second compound 3.16 µM, first compound 0.0316 µM"}, "[26]": {"conditions": "second compound 3.16 µM, first compound 0.1 µM"}, "[27]": {"conditions": "second compound 3.16 µM, first compound 0.316 µM"}, "[28]": {"conditions": "second compound 3.16 µM, first compound 1 µM"}, "[29]": {"conditions": "second compound 3.16 µM, first compound 3.16 µM"}, "[30]": {"conditions": "second compound 3.16 µM, first compound 10 µM"}, "[31]": {"conditions": "second compound 10 µM, first compound 0.0316 µM"}, "[32]": {"conditions": "second compound 10 µM, first compound 0.1 µM"}, "[33]": {"conditions": "second compound 10 µM, first compound 0.316 µM"}, "[34]": {"conditions": "second compound 10 µM, first compound 1 µM"}, "[35]": {"conditions": "second compound 10 µM, first compound 3.16 µM"}, "[36]": {"conditions": "second compound 10 µM, first compound 10 µM"}}, "data": [{"smiles": "C=CC(=O)N1CCN(c2nc(=O)n(-c3c(C)ccnc3C(C)C)c3nc(-c4c(O)cccc4F)c(F)cc23)C(C)C1", "note": "(centres undefined) + Cc1cnc(CNC(=O)c2c(=O)c3ccc(N4CCCN(C)CC4)nc3n3c2sc2ccccc23)cn1", "values": [{"measurement": "IC50", "setting": "second compound 0.0316 µM", "result": "> 10", "unit": "µM"}, {"measurement": "IC50", "setting": "second compound 0.1 µM", "result": "> 10", "unit": "µM"}, {"measurement": "IC50", "setting": "second compound 0.316 µM", "result": "> 10", "unit": "µM"}, {"measurement": "IC50", "setting": "second compound 1 µM", "result": "> 10", "unit": "µM"}, {"measurement": "IC50", "setting": "second compound 3.16 µM", "result": "> 10", "unit": "µM"}, {"measurement": "IC50", "setting": "second compound 10 µM", "result": "> 10", "unit": "µM"}, {"measurement": "viability, T/C", "setting": "[1]", "result": 107, "unit": "%"}, {"measurement": "viability, T/C", "setting": "[2]", "result": 114, "unit": "%"}, {"measurement": "viability, T/C", "setting": "[3]", "result": 115, "unit": "%"}, {"measurement": "viability, T/C", "setting": "[4]", "result": 107, "unit": "%"}, {"measurement": "viability, T/C", "setting": "[5]", "result": 100, "unit": "%"}, {"measurement": "viability, T/C", "setting": "[6]", "result": 91.5, "unit": "%"}, {"measurement": "viability, T/C", "setting": "[7]", "result": 101, "unit": "%"}, {"measurement": "viability, T/C", "setting": "[8]", "result": 102, "unit": "%"}, {"measurement": "viability, T/C", "setting": "[9]", "result": 107, "unit": "%"}, {"measurement": "viability, T/C", "setting": "[10]", "result": 124, "unit": "%"}, {"measurement": "viability, T/C", "setting": "[11]", "result": 125, "unit": "%"}, {"measurement": "viability, T/C", "setting": "[12]", "result": 111, "unit": "%"}, {"measurement": "viability, T/C", "setting": "[13]", "result": 103, "unit": "%"}, {"measurement": "viability, T/C", "setting": "[14]", "result": 106, "unit": "%"}, {"measurement": "viability, T/C", "setting": "[15]", "result": 110, "unit": "%"}, {"measurement": "viability, T/C", "setting": "[16]", "result": 89.2, "unit": "%"}, {"measurement": "viability, T/C", "setting": "[17]", "result": 124, "unit": "%"}, {"measurement": "viability, T/C", "setting": "[18]", "result": 96, "unit": "%"}, {"measurement": "viability, T/C", "setting": "[19]", "result": 86.5, "unit": "%"}, {"measurement": "viability, T/C", "setting": "[20]", "result": 91, "unit": "%"}, {"measurement": "viability, T/C", "setting": "[21]", "result": 88.2, "unit": "%"}, {"measurement": "viability, T/C", "setting": "[22]", "result": 91.6, "unit": "%"}, {"measurement": "viability, T/C", "setting": "[23]", "result": 100, "unit": "%"}, {"measurement": "viability, T/C", "setting": "[24]", "result": 81, "unit": "%"}, {"measurement": "viability, T/C", "setting": "[25]", "result": 74.5, "unit": "%"}, {"measurement": "viability, T/C", "setting": "[26]", "result": 84, "unit": "%"}, {"measurement": "viability, T/C", "setting": "[27]", "result": 89.3, "unit": "%"}, {"measurement": "viability, T/C", "setting": "[28]", "result": 81.4, "unit": "%"}, {"measurement": "viability, T/C", "setting": "[29]", "result": 89.4, "unit": "%"}, {"measurement": "viability, T/C", "setting": "[30]", "result": 76.8, "unit": "%"}, {"measurement": "viability, T/C", "setting": "[31]", "result": 74.4, "unit": "%"}, {"measurement": "viability, T/C", "setting": "[32]", "result": 74, "unit": "%"}, {"measurement": "viability, T/C", "setting": "[33]", "result": 74.7, "unit": "%"}, {"measurement": "viability, T/C", "setting": "[34]", "result": 83.4, "unit": "%"}, {"measurement": "viability, T/C", "setting": "[35]", "result": 78, "unit": "%"}, {"measurement": "viability, T/C", "setting": "[36]", "result": 68.5, "unit": "%"}]}, {"smiles": "CC1COCCN1c1cc(C2(S(C)(=N)=O)CC2)nc(-c2ccnc3[nH]ccc23)n1", "note": "(centres undefined) + CN(C)c1ccc(Nc2c3ccc(NC(=O)CCN4CCCC4)cc3nc3cc(NC(=O)CCN4CCCC4)ccc23)cc1", "values": [{"measurement": "IC50", "setting": "second compound 0.0316 µM", "result": "> 10", "unit": "µM"}, {"measurement": "IC50", "setting": "second compound 0.1 µM", "result": "> 10", "unit": "µM"}, {"measurement": "IC50", "setting": "second compound 0.316 µM", "result": "> 10", "unit": "µM"}, {"measurement": "IC50", "setting": "second compound 1 µM", "result": "> 10", "unit": "µM"}, {"measurement": "IC50", "setting": "second compound 3.16 µM", "result": "> 10", "unit": "µM"}, {"measurement": "IC50", "setting": "second compound 10 µM", "result": "> 10", "unit": "µM"}, {"measurement": "viability, T/C", "setting": "[1]", "result": 102, "unit": "%"}, {"measurement": "viability, T/C", "setting": "[2]", "result": 106, "unit": "%"}, {"measurement": "viability, T/C", "setting": "[3]", "result": 98.1, "unit": "%"}, {"measurement": "viability, T/C", "setting": "[4]", "result": 98.6, "unit": "%"}, {"measurement": "viability, T/C", "setting": "[5]", "result": 69.1, "unit": "%"}, {"measurement": "viability, T/C", "setting": "[6]", "result": 79.6, "unit": "%"}, {"measurement": "viability, T/C", "setting": "[7]", "result": 87.7, "unit": "%"}, {"measurement": "viability, T/C", "setting": "[8]", "result": 93.7, "unit": "%"}, {"measurement": "viability, T/C", "setting": "[9]", "result": 82, "unit": "%"}, {"measurement": "viability, T/C", "setting": "[10]", "result": 87, "unit": "%"}, {"measurement": "viability, T/C", "setting": "[11]", "result": 79.3, "unit": "%"}, {"measurement": "viability, T/C", "setting": "[12]", "result": 75.3, "unit": "%"}, {"measurement": "viability, T/C", "setting": "[13]", "result": 84.5, "unit": "%"}, {"measurement": "viability, T/C", "setting": "[14]", "result": 89.6, "unit": "%"}, {"measurement": "viability, T/C", "setting": "[15]", "result": 92.3, "unit": "%"}, {"measurement": "viability, T/C", "setting": "[16]", "result": 75, "unit": "%"}, {"measurement": "viability, T/C", "setting": "[17]", "result": 80, "unit": "%"}, {"measurement": "viability, T/C", "setting": "[18]", "result": 63.9, "unit": "%"}, {"measurement": "viability, T/C", "setting": "[19]", "result": 89.4, "unit": "%"}, {"measurement": "viability, T/C", "setting": "[20]", "result": 74.3, "unit": "%"}, {"measurement": "viability, T/C", "setting": "[21]", "result": 76.3, "unit": "%"}, {"measurement": "viability, T/C", "setting": "[22]", "result": 73.2, "unit": "%"}, {"measurement": "viability, T/C", "setting": "[23]", "result": 76.8, "unit": "%"}, {"measurement": "viability, T/C", "setting": "[24]", "result": 53, "unit": "%"}, {"measurement": "viability, T/C", "setting": "[25]", "result": 76.3, "unit": "%"}, {"measurement": "viability, T/C", "setting": "[26]", "result": 65.1, "unit": "%"}, {"measurement": "viability, T/C", "setting": "[27]", "result": 65.3, "unit": "%"}, {"measurement": "viability, T/C", "setting": "[28]", "result": 64, "unit": "%"}, {"measurement": "viability, T/C", "setting": "[29]", "result": 73, "unit": "%"}, {"measurement": "viability, T/C", "setting": "[30]", "result": 51.6, "unit": "%"}, {"measurement": "viability, T/C", "setting": "[31]", "result": 71.9, "unit": "%"}, {"measurement": "viability, T/C", "setting": "[32]", "result": 81.8, "unit": "%"}, {"measurement": "viability, T/C", "setting": "[33]", "result": 85.4, "unit": "%"}, {"measurement": "viability, T/C", "setting": "[34]", "result": 67, "unit": "%"}, {"measurement": "viability, T/C", "setting": "[35]", "result": 71.9, "unit": "%"}, {"measurement": "viability, T/C", "setting": "[36]", "result": 63, "unit": "%"}]}]}
